Source: patent US12589087B2, “Enantiomer selective action on neurotransmission” (The Board of Trustees of the Leland Stanford Junior …, priority 2021, dated 2026)

Tests used:
C57Bl/6 mice = assay: Chronic dosing behavioral tests (activity chamber, elevated plus maze, Y maze, Morris water maze, fear conditioning); type: in vivo, mouse; details: for body weight, activity chamber distance, elevated plus maze open arm time, Y maze alternation, Morris water maze learning / mortality: 10 mg/kg/day IP for a month; for fear conditioning, contextual recall on Day 2: 10 mg/kg/day IP, week 4
Procedure: Dosing: (R)-2MeGlu (10 mg/kg), (S)-2MeGlu (10 mg/kg), rac-2MeGln (10 mg/kg), and vehicle (PBS) were administered IP at 10 ml/kg dosing volume daily. The first dose was administered one week prior to behavioral tests and continued for four weeks during the behavioral testing.
Activity Chamber Open Field: The assessment took place in an Open Field Activity Arena as described above for 30 min. The Arena was cleaned with a 1% Virkon solution at the end of the trial. Activity chamber open field assessment was conducted after one week of exposure to compounds or vehicle.
Elevated Plus Maze: The maze was made of acrylonitrile butadiene styrene (ABS) plastic and had two open arms and two close arms that were 30 cm long and 5 cm wide. The center area where the open and close arms meet was 5 cm×5 cm. The open arms had 2 mm lips at the edges, and the closed arms had 15 cm opaque walls. The maze was elevated 50 cm and surrounded by privacy blinds during the test. The maze was illuminated to 7 lux using red light throughout the test. Each mouse was released in the center of the maze and given 5 min to explore the maze. Duration and frequency in each zone of the maze were recorded using Ethovision (Noldus Information Technology, Wageningen, the Netherlands) tracking software. The maze was cleaned with a 1% Virkon solution at the end of the trial. Elevated plus maze was conducted after one week of exposure to compounds or vehicle.
Y Maze Spontaneous Alternation: The Y maze is made of plastic with 3 arms in a “Y” shape. The arms are labelled as Arm A, B, and C; Arm A is 20.32 cm (L)×5 cm (W) 12.7 cm (H), Arm B and C are 15.24 cm (L)×5 cm (W), and 12.7 cm (H). The test is based on the willingness of rodents to explore a novel environment and designed to measure spontaneous alternations in rodents. Each mouse was placed in the center of the maze facing Arm B. The first entry was excluded from data analysis because the animals were led to the initial arm entry by the experimenter. Using an overhead camera, the number of arm entries and alternations were recorded for 5 minutes. An arm entry is when all four paws enter into a new arm of the maze. The apparatus was cleaned with 1% Virkon. Parameters recorded were % alternation and the total number of entries into arms. The Y maze test was conducted after two weeks of exposure to compounds or vehicle.
Morris Water Maze: During the Hidden Platform Training (HPT), mice were given 2 trials, with 1-minute inter-trial-intervals (ITIs) in a circular water tank (172 cm diameter) filled with opaque water at 22.0±1.5° C. Nontoxic tempera paint was used to make the water opaque. A circular platform (17 cm diameter) was submerged 1 cm below the water's surface and placed in one of the four quadrants of the pool (Quadrant 2). The release locations into the pool were randomly chosen to prevent spatial bias and the platform was also relocated during reversal training. We conducted 3 days of training with 2 trials each day for a total of the 6 trials prior to probe 1 (Days 1 to 3). Specifically, mice were given a maximum of 60 s to find the submerged platform per trial. […] After remaining on the platform for 15 s, mice were removed from the platform and placed in a dry cage with a paper towel. This process was repeated for 3 days. On the following day (˜24 hours after the last training trial), the platform was removed from the pool, and a 60 s probe trial was conducted. After acquiring the data for the probe trial, the platform was replaced at the same location, and the mice were given additional two trials of training. Three days (˜72 hours) after the last training trial, a second probe trial was conducted. The platform was relocated to a new quadrant (Quadrant 4) after the second probe trial, and the animals were trained in Reversal Hidden Platform Training (RHPT). The procedures for RHPT were identical to HPT and were conducted for 3 days (Days 7 to 9). A third probe trial was conducted on the following day (˜24 hr). […]

mGluR2 = biological target: T1, mGluR2 (Homo sapiens, UniProt Q14416); assay: radioligand binding assay, recombinant Chem-1 cells
T1 construct: host or cells: Chem-1 cells
Procedure: (§1) Nonspecific AMPA, kainate and NMDA binding assays were performed by Eurofins Discovery (Cerep) using rat cerebral cortex membranes and radiolabeled [^3H]AMPA, [^3H]kainic acid and [^3H]CGP 39653, respectively. All compounds were tested at a single concentration of 100 uM in triplicate. mGluR1, mGluR2, mGluR5 and GABAB binding assays were performed by Eurofins Discovery. mGluR1 assay was performed using rat cerebellum membranes and radiolabeled [^3H]quisqalic acid. mGluR2 assay was performed using recombinant Chem-1 cells and [^3H]LY341495. mGluR5 and GABAB binding assays were performed using recombinant CHO-K1 cells and […], respectively. All compounds were tested at a single concentration of 100 uM in triplicate.
(§2) All receptor assays were performed exactly as described in Example 1. Functional assays of all GABAA, NMDA (GluN2A-GluN2D) and AMPA (GluA2) receptor subunits were performed by SB Drug Discovery as a part of their CNS discovery panel using FLIPR technology. All compounds were tested at 7 concentrations in triplicate and EC50/IC50 was determined where applicable. Functional GABAB assay was performed by Eurofins Discovery (Cerep) using Ca^2+-dependent fluorimetry in RBL cells expressing human GABAB (B1/B2) receptor. All compounds were tested at a single concentration of 100 uM in triplicate. […]

NMDA nonspecific = assay: radioligand binding assay, cerebral cortex membranes, [3H]CGP 39653; details: NMDA nonspec, rat; 100 μM
Procedure: as §1, §2

GABAB (B1a/B2) = biological target: T2, GABAB (B1a/B2) (Homo sapiens, UniProt Q9UBS5); assay: radioligand binding assay
T2 construct: host or cells: CHO-K1
Procedure: as §1
(§3) All receptor assays were performed exactly as described in Example 1. Functional assays of all GABAA, NMDA (GluN2A-GluN2D) and AMPA (GluA2) receptor subunits were performed by SB Drug Discovery as a part of their CNS discovery panel using FLIPR technology. All compounds were tested at 7 concentrations in triplicate and EC50/IC50 was determined where applicable. Functional GABAB assay was performed by Eurofins Discovery (Cerep) using Ca^2+-dependent fluorimetry in RBL cells expressing human GABAB (B1/B2) receptor. All compounds were tested at a single concentration of 100 uM in triplicate. Nonspecific AMPA, kainate and NMDA binding assays were performed by Eurofins Discovery (Cerep) using rat cerebral cortex membranes and radiolabeled [^3H]AMPA, [^3H]kainic acid and [^3H]CGP 39653, respectively. All compounds were tested at a single concentration of 100 uM in triplicate. mGluR1, mGluR2, mGluR5 and GABAB binding assays were performed by Eurofins Discovery. All compounds were tested at a single concentration of 100 uM in triplicate.

GABAB (B1b/B2) = biological target: T3, GABAB (B1b/B2) (Homo sapiens, UniProt Q9UBS5); assay: radioligand binding assay
T3 construct: host or cells: CHO-K1
Procedure: as §1, §3

AMPA nonspecific = assay: radioligand binding assay, cerebral cortex membranes, [3H]AMPA; details: AMPA nonspec, rat; 100 μM
Procedure: as §1, §2

T1 sequence (Q14416 19-872): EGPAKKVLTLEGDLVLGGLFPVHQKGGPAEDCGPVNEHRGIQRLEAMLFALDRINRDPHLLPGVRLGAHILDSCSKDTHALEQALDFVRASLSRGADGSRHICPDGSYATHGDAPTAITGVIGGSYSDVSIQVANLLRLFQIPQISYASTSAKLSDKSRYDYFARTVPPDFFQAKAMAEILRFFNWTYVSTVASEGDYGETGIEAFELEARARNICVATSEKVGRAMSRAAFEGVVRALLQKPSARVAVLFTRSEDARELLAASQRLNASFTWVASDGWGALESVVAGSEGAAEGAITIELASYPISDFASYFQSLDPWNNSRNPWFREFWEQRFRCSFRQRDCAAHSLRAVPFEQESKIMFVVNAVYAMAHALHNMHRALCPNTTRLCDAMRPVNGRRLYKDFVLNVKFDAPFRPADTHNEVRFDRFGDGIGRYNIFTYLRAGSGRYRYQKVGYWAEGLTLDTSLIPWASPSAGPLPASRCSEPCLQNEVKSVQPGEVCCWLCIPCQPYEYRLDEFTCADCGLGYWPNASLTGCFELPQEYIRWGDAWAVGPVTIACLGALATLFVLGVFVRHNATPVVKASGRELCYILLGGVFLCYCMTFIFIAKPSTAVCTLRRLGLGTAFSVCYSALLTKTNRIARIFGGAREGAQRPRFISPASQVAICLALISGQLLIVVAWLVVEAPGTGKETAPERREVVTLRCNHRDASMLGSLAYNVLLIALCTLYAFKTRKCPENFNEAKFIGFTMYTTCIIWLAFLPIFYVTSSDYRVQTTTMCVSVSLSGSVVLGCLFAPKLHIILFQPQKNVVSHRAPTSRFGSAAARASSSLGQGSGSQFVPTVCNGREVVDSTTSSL
T3 sequence (Q9UBS5 1-844 isoform Q9UBS5-2): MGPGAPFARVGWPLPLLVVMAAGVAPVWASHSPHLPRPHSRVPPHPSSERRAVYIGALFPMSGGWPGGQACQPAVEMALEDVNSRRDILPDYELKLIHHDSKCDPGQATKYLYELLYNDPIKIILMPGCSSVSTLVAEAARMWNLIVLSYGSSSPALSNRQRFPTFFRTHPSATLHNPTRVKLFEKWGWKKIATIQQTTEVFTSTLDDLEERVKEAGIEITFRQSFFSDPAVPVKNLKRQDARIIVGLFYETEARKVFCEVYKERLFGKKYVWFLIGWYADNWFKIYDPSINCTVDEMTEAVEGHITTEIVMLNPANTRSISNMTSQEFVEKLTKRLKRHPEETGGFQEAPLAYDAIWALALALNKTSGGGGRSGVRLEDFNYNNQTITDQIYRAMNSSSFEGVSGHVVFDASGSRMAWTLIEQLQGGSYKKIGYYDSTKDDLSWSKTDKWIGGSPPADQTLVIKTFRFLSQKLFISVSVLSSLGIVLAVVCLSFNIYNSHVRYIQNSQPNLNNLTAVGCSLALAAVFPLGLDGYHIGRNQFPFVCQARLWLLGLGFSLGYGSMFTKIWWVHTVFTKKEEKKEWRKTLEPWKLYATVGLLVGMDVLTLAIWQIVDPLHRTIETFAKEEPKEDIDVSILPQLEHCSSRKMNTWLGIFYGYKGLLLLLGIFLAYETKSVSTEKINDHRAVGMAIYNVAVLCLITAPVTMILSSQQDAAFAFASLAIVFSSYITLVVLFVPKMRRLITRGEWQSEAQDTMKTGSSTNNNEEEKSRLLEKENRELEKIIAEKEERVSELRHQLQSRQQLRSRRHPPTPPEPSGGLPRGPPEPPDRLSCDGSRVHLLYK
T3 sequence (O75899 42-941 partner): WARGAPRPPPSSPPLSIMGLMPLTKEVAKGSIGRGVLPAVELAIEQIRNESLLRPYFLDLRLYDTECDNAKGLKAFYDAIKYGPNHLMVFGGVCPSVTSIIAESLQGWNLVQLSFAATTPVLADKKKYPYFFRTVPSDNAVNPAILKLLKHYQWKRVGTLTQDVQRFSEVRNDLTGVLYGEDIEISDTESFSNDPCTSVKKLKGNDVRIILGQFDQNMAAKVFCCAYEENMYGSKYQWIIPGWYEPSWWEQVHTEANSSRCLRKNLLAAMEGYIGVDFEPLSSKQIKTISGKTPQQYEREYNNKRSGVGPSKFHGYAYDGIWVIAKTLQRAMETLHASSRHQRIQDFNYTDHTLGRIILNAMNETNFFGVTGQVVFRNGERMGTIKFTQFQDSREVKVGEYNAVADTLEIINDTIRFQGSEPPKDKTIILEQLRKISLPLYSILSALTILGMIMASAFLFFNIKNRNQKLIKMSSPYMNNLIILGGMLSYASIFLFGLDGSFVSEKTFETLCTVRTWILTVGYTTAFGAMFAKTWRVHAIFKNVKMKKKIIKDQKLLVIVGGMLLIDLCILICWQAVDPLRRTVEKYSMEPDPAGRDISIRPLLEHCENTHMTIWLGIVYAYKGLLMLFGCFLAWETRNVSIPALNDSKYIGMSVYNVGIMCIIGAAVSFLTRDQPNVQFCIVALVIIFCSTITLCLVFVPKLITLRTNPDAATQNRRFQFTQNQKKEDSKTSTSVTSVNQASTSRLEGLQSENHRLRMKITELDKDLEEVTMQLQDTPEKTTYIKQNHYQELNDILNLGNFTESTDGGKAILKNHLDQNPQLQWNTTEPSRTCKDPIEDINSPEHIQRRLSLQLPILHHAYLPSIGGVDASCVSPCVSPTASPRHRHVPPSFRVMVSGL
T2 sequence (Q9UBS5 15-961 limits assumed): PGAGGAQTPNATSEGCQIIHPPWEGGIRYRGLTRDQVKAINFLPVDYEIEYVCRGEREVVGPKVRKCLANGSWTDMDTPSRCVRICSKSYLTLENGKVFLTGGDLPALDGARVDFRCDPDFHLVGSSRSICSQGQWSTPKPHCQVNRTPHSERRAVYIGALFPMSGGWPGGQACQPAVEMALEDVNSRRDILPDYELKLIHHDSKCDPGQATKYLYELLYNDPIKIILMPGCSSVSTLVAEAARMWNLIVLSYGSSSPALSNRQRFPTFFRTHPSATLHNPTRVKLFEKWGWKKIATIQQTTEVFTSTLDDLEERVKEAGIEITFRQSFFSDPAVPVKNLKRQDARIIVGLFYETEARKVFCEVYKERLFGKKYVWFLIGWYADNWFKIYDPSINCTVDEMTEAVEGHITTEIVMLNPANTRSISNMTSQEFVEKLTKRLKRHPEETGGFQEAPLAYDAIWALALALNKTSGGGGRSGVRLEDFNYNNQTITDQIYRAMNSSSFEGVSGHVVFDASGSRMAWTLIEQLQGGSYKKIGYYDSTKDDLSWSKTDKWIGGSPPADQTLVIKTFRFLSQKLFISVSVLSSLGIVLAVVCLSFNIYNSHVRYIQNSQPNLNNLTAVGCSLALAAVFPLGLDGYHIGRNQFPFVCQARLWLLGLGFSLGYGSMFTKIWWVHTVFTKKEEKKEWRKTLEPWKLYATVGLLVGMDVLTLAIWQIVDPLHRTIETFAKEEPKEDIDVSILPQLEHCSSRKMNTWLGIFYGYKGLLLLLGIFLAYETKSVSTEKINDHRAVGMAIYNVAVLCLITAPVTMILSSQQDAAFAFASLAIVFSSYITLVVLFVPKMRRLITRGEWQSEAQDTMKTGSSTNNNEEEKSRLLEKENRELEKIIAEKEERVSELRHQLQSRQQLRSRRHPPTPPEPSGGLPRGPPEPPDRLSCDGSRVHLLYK
T2 sequence (O75899 42-941 partner): as the sequence (O75899 42-941 partner) above

SMILES	body weight, activity chamber distance, elevated plus maze open arm time, Y maze alternation, Morris water maze learning (C57Bl/6 mice)	mortality (C57Bl/6 mice)	fear conditioning, contextual recall on Day 2 (C57Bl/6 mice)	inhibition at 100 µM (mGluR2) [%]	% of radioligand binding inhibition (NMDA nonspecific) [%]	inhibition at 100 µM (GABAB (B1a/B2)) [%]	inhibition at 100 µM (GABAB (B1b/B2)) [%]	% of radioligand binding inhibition (AMPA nonspecific) [%]
CC(N)(CCC(N)=O)C(=O)O (racemic) [rac-2MeGln, rac-2-methylglutamine]	no significant effect of treatment	no mortality	no significant effect of treatments					
C[C@@](N)(CCC(=O)O)C(=O)O [(R)-2MeGlu, (R)-2-methylglutamic acid]	no significant effect of treatment	no mortality	no significant effect of treatments	-3	8	18	13	15
C[C@](N)(CCC(=O)O)C(=O)O [(S)-2MeGlu, (S)-2-methylglutamic acid]	no significant effect of treatment	no mortality	no significant effect of treatments	25	3	6	14	12
